# Results taken from paper PMC7377239, “Cardiovascular Effects of Polychlorinated Biphenyls and Their Major Metabolites” (Environmental Health Perspectives, 2020).
# Counter-ions that a name gives are not always drawn. Like-named read-outs stand apart in the source and are kept apart here.
# Test system: iCell cardiomyocytes (human iPSC-derived cardiomyocytes)
# Assay: Intracellular Ca2+ flux / beating parameters in iCell cardiomyocytes (FLIPR tetra), 90 min or 24 h
# Format: cell-based
# Conditions: Homo sapiens, Cardiomyocyte, 0.00 µM = 100.00; for activity at 0.1 µM: 0.10 µM
# How it was run: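 Gelatin-plated iCell cardiomyocytes (5,000/well) were dye-loaded for 2 h at 37 °C, then exposed for 90 min or 24 h to PCBs/metabolites (5× plates at 0.05–500 µM; 0.5% DMSO final) in triplicate. Ca2+ flux was read for 100 s at 8 Hz and 37 °C. Peak height, frequency, spacing CV and decay/rise ratio were vehicle-normalized and fitted with a four-parameter logistic model, with POD set at 1 SD of vehicle.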
# [1] = 1.5 h, 90min, read-out: cm.amp.avg.90min
# [2] = 1.5 h, 90min, read-out: cm.amp.cv.90min
# [3] = 1.5 h, 90min, read-out: cm.bpm.90min
# [4] = 1.5 h, 90min, read-out: cm.decay.rise.90min
# [5] = 1.5 h, 90min, read-out: cm.spacing.cv.90min
# [6] = 24 h, 24hrs, read-out: cm.amp.avg.24hrs
# [7] = 24 h, 24hrs, read-out: cm.amp.cv.24hrs
# [8] = 24 h, 24hrs, read-out: cm.bpm.24hrs
# [9] = 24 h, 24hrs, read-out: cm.decay.rise.24hrs
# [10] = 24 h, 24hrs, read-out: cm.spacing.cv.24hrs
compound,measurement,setting,value
COc1cc(Cl)c(-c2cc(Cl)ccc2Cl)cc1Cl [4-OMe PCB52],activity at 0.01 µM,[1],106%
same,activity at 0.01 µM,[2],122%
same,activity at 0.01 µM,[3],97.8%
same,activity at 0.01 µM,[4],97.5%
same,activity at 0.01 µM,[5],105%
same,activity at 0.1 µM,[1],106%
same,activity at 0.1 µM,[2],92.7%
same,activity at 0.1 µM,[3],102%
same,activity at 0.1 µM,[4],99.6%
same,activity at 0.1 µM,[5],88%
same,activity at 1 µM,[1],107%
same,activity at 1 µM,[2],113%
same,activity at 1 µM,[3],100%
same,activity at 1 µM,[4],97%
same,activity at 1 µM,[5],94.3%
same,activity at 10 µM,[1],83.3%
same,activity at 10 µM,[2],119%
same,activity at 10 µM,[3],120%
same,activity at 10 µM,[4],91.9%
same,activity at 10 µM,[5],108%
same,activity at 100 µM,[1],0%
same,activity at 100 µM,[2],0%
same,activity at 100 µM,[3],0%
same,activity at 100 µM,[4],0%
same,activity at 100 µM,[5],0%
same,activity at 0.01 µM,[6],89%
same,activity at 0.01 µM,[7],35.4%
same,activity at 0.01 µM,[8],54.4%
same,activity at 0.01 µM,[9],45.5%
same,activity at 0.01 µM,[10],56.2%
same,activity at 0.1 µM,[6],164%
same,activity at 0.1 µM,[7],69.5%
same,activity at 0.1 µM,[8],109%
same,activity at 0.1 µM,[9],100%
same,activity at 0.1 µM,[10],108%
same,activity at 1 µM,[6],166%
same,activity at 1 µM,[7],70.7%
same,activity at 1 µM,[8],95.5%
same,activity at 1 µM,[9],109%
same,activity at 1 µM,[10],102%
same,activity at 10 µM,[6],138%
same,activity at 10 µM,[7],81.2%
same,activity at 10 µM,[8],104%
same,activity at 10 µM,[9],107%
same,activity at 10 µM,[10],102%
same,activity at 100 µM,[6],0%
same,activity at 100 µM,[7],0%
same,activity at 100 µM,[8],0%
same,activity at 100 µM,[9],0%
same,activity at 100 µM,[10],0%
O=S(=O)(O)Oc1cc(Cl)c(-c2cc(Cl)ccc2Cl)cc1Cl [4-yl PCB 52 sulfate],activity at 0.01 µM,[1],103%
same,activity at 0.01 µM,[2],105%
same,activity at 0.01 µM,[3],102%
same,activity at 0.01 µM,[4],101%
same,activity at 0.01 µM,[5],100%
same,activity at 0.1 µM,[1],113%
same,activity at 0.1 µM,[2],86.3%
same,activity at 0.1 µM,[3],103%
same,activity at 0.1 µM,[4],90.8%
same,activity at 0.1 µM,[5],101%
same,activity at 1 µM,[1],102%
same,activity at 1 µM,[2],104%
same,activity at 1 µM,[3],100%
same,activity at 1 µM,[4],97.7%
same,activity at 1 µM,[5],97.4%
same,activity at 10 µM,[1],98.4%
same,activity at 10 µM,[2],103%
same,activity at 10 µM,[3],97.8%
same,activity at 10 µM,[4],97.1%
same,activity at 10 µM,[5],104%
same,activity at 100 µM,[1],0%
same,activity at 100 µM,[2],0%
same,activity at 100 µM,[3],0%
same,activity at 100 µM,[4],0%
same,activity at 100 µM,[5],0%
same,activity at 0.01 µM,[6],128%
same,activity at 0.01 µM,[7],103%
same,activity at 0.01 µM,[8],97.4%
same,activity at 0.01 µM,[9],104%
same,activity at 0.01 µM,[10],107%
same,activity at 0.1 µM,[6],135%
same,activity at 0.1 µM,[7],70.5%
same,activity at 0.1 µM,[8],94.5%
same,activity at 0.1 µM,[9],109%
same,activity at 0.1 µM,[10],110%
same,activity at 1 µM,[6],147%
same,activity at 1 µM,[7],69.4%
same,activity at 1 µM,[8],95.5%
same,activity at 1 µM,[9],104%
same,activity at 1 µM,[10],91.9%
same,activity at 10 µM,[6],167%
same,activity at 10 µM,[7],68.9%
same,activity at 10 µM,[8],92.6%
same,activity at 10 µM,[9],98.8%
same,activity at 10 µM,[10],111%
same,activity at 100 µM,[6],0%
same,activity at 100 µM,[7],0%
same,activity at 100 µM,[8],0%
same,activity at 100 µM,[9],0%
same,activity at 100 µM,[10],0%
Clc1ccc(Cl)c(-c2c(Cl)ccc(Cl)c2Cl)c1 [PCB95],activity at 0.01 µM,[1],91.5%
same,activity at 0.01 µM,[2],105%
same,activity at 0.01 µM,[3],99.1%
same,activity at 0.01 µM,[4],101%
same,activity at 0.01 µM,[5],118%
same,activity at 0.1 µM,[1],99.9%
same,activity at 0.1 µM,[2],86.3%
same,activity at 0.1 µM,[3],96.5%
same,activity at 0.1 µM,[4],103%
same,activity at 0.1 µM,[5],104%
same,activity at 1 µM,[1],84.6%
same,activity at 1 µM,[2],116%
same,activity at 1 µM,[3],85.3%
same,activity at 1 µM,[4],109%
same,activity at 1 µM,[5],92%
same,activity at 10 µM,[1],101%
same,activity at 10 µM,[2],120%
same,activity at 10 µM,[3],86.5%
same,activity at 10 µM,[4],120%
same,activity at 10 µM,[5],120%
same,activity at 100 µM,[1],9.49%
same,activity at 100 µM,[2],441%
same,activity at 100 µM,[3],0%
same,activity at 100 µM,[4],36.2%
same,activity at 100 µM,[5],78.1%
same,activity at 0.01 µM,[6],115%
same,activity at 0.01 µM,[7],139%
same,activity at 0.01 µM,[8],110%
same,activity at 0.01 µM,[9],92.5%
same,activity at 0.01 µM,[10],142%
same,activity at 0.1 µM,[6],181%
same,activity at 0.1 µM,[7],73.7%
same,activity at 0.1 µM,[8],113%
same,activity at 0.1 µM,[9],99.1%
same,activity at 0.1 µM,[10],137%
same,activity at 1 µM,[6],76.5%
same,activity at 1 µM,[7],36.8%
same,activity at 1 µM,[8],43.9%
same,activity at 1 µM,[9],54.1%
same,activity at 1 µM,[10],61.3%
same,activity at 10 µM,[6],144%
same,activity at 10 µM,[7],77.4%
same,activity at 10 µM,[8],79.2%
same,activity at 10 µM,[9],109%
same,activity at 10 µM,[10],127%
same,activity at 100 µM,[6],0%
same,activity at 100 µM,[7],0%
same,activity at 100 µM,[8],0%
same,activity at 100 µM,[9],0%
same,activity at 100 µM,[10],0%
